From article PMC3254644, “DNA Display Selection of Peptide Ligands for a Full-Length Human G Protein-Coupled Receptor on CHO-K1 Cells” (PLoS ONE, 2012)
Residues, ends and D or L forms follow the SMILES beside them.

Key:
[1] = target: T1, human angiotensin II type 1 receptor (hAT1R) (Homo sapiens, UniProt P30556); experiment: Competitive binding assay at various concentrations of synthetic peptides (IC50); conditions: streptavidin-fused Ang II on hAT1R/CHO-K1 cells competed by 0–200 nM synthetic peptide; 10 min room temperature; quantitative Western blot (Fig. S1)
T1 construct: we applied the DNA display system to in vitro selection of peptide ligands for a full-length GPCR expressed on whole cells; polyhistidine (C); expressed in transfected cells
T1 sequence (P30556 1-359): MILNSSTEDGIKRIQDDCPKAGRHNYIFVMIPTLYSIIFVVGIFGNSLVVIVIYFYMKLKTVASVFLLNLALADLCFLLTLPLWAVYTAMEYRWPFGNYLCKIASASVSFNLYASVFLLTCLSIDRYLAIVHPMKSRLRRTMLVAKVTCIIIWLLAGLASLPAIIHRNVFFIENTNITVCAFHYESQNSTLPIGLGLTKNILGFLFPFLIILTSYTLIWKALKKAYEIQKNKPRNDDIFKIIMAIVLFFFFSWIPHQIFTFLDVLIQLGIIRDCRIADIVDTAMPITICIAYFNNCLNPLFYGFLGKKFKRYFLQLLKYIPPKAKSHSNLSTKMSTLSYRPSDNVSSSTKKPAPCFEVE
Protocol: Streptavidin-fused peptides for selected clones were prepared separately by using the PURE system classic II kit with 20 nM DNA for 1 h at 37°C. The streptavidin-fused peptides were incubated with the hAT1R-expressing cells for 10 min at room temperature in the presence 0–200 nM synthetic peptides (see next section) as competitors, and washed as described in the previous section. Then the binding proteins were recovered using 0.5 ml of lysis buffer (1% protease inhibitor cocktail and 4 M urea) on ice for 30 min. The cell lysates were analyzed by 15% SDS-PAGE and Western blot analysis using anti-T7·tag antibody (Novagen) followed by HRP-conjugated secondary antibody (Chemicon). The streptavidin-fused peptides with T7·tag were quantitatively detected by an ECL chemiluminescence kit and Hyperfilm ECL (GE Healthcare).
Supplementary file pone.0030084.s001.pdf: Figure S1 Competition curves for selected peptides. […] For details, see MATERIALS AND METHODS. (PDF) Click here for additional data file.

[2] = target: human angiotensin II (Ang II) type-1 receptor (hAT1R) with C-terminal c-myc tag, on CHO-K1 cells (human) (UniProt P30556); experiment: radioligand binding; [125I]Sar1,Ile8-Ang II, 0.05 nM to 20 nM, on hAT1R/CHO-K1 cells in 48-well plates; Ham's F12 with 1% BSA; 30 min at room temperature; Scatchard analysis; data not shown
rat AT1R = test system: rat AT1R; parameters: method as in PMID 12969745; conditions: cited from earlier work

Molecule	IC50 [1] [nM]	other results
CC[C@H](C)[C@H](NC(=O)[C@H](CCCNC(=N)N)NC(=O)[C@@H](N)CC(N)=O)C(=O)N[C@@H](Cc1ccc(O)cc1)C(=O)N[C@H](C(=O)N[C@@H](Cc1c[nH]cn1)C(=O)N1CCC[C@H]1C(=O)N[C@@H](Cc1ccccc1)C(=O)O)[C@@H](C)CC [LI5-1] (H-NRIYIHPF-OH)	16	–
CC(C)C[C@H](NC(=O)[C@H](CCCNC(=N)N)NC(=O)[C@@H](N)Cc1c[nH]c2ccccc12)C(=O)N[C@@H](Cc1ccc(O)cc1)C(=O)N[C@@H](CC(C)C)C(=O)N[C@@H](Cc1c[nH]cn1)C(=O)N1CCC[C@H]1C(=O)N[C@@H](Cc1ccccc1)C(=O)O [LI5-2] (H-WRLYLHPF-OH)	75	–
CC[C@H](C)[C@H](NC(=O)[C@@H]1CCCN1C(=O)[C@H](Cc1c[nH]cn1)NC(=O)[C@@H](NC(=O)[C@H](Cc1ccc(O)cc1)NC(=O)[C@H](CC(C)C)NC(=O)[C@H](CCCNC(=N)N)NC(=O)CN)[C@@H](C)CC)C(=O)O [LII3-2] (H-GRLYIHPI-OH)	8.6	–
CC[C@H](C)[C@H](NC(=O)[C@H](Cc1ccc(O)cc1)NC(=O)[C@H](Cc1ccccc1)NC(=O)[C@H](CCCNC(=N)N)NC(=O)[C@@H](N)CCC(N)=O)C(=O)N[C@@H](Cc1c[nH]cn1)C(=O)N1CCC[C@H]1C(=O)N[C@@H](CC(C)C)C(=O)O [LII3-4] (H-QRFYIHPL-OH)	48	–
CC[C@H](C)[C@H](NC(=O)[C@@H]1CCCN1C(=O)[C@H](Cc1c[nH]cn1)NC(=O)[C@@H](NC(=O)[C@H](Cc1ccc(O)cc1)NC(=O)[C@H](CC(C)C)NC(=O)[C@H](CCCCN)NC(=O)[C@@H](N)CCCNC(=N)N)[C@@H](C)CC)C(=O)O [LII3-5] (H-RKLYIHPI-OH)	7.6	–
[125I]Sar1,Ile8-Ang II (peptide)	–	Kd [2]: 8.2 nM
[Lys^2]Ang II (DKVYIHPF; Angiotensin-2; UniProt P01019 25-32, looked up, variant R2K) [Ang II analogue with Lys at position 2, from the literature]	–	affinity for rat AT1R relative to wild-type Ang II (rat AT1R): lower than that of wild-type Ang II
